Laboratory results published in PMC7738869, “A novel STAT3 inhibitor W2014-S regresses human non-small cell lung cancer xenografts and sensitizes EGFR-TKI acquired resistance” (Theranostics, 2021).

System: pY705-STAT3
Assay: Immunofluorescence of nuclear pY705-STAT3 in A549 cells
Type: cell-based, human
Settings: A549, 3 h treatment
Procedure: A549 cells were cultured into confocal dishes (Costar, USA). After 24 h, W2014-S was added into dishes. After another 3 h, cells were fixed with 4% paraformaldehyde in PBS for 10 min at room temperature. Then cells were permeabilized with 0.3% Trition X-100 for 5 min at room temperature, following by incubating with primary antibody overnight at 4 ℃. Next, cells were incubated with Alexa-Fluor-conjugated secondary antibodies for 1 h in the dark. The cells were subsequently stained with DAPI (40728ES50, Yeasen, Shanghai, China). Images were captured by Laser Scanning Confocal Microscope FV3000 (Olympus, Japan). Z-stacks were collected with a spacing of 1 μm. Antibody and dilutions used in the studies were: pY705-STAT3 (9145S, Cell Signaling Technology, 1:100), Alexa Fluor 488 Conjugate (1:5000, #4412, Cell signaling Technology, USA). The fluorescence intensity profile along the Z-axis from confocal Z-stacks was shown. The fluorescence intensity of nuclear-localized p-STAT3 was quantified using the confocal software to define the area of the selected region of interest based on the nuclear DAPI signal. Each experiment was done in at least 3 independent experiments.

C[C@H](Oc1ccc(-c2nc3nc(C4=CCN(C(=O)OC(C)(C)C)CC4)ccc3[nH]2)cc1)c1ccccc1 [W2014-S]
accumulation of pY705-STAT3 in the nucleus: decreased
